One assay relates to E. faecalis DH-5478. The assay is described as follows: Broth microdilution MIC/MBC. Format: cell-based, Enterococcus faecalis. Particulars: for MIC: Enterococcus faecalis, DH5478, 24 h, read-out: MIC (Mean ± SEM); for MBC/MIC: value in brackets. How it is done: (§1) The broth microdilution method was taken as a basis to detect the MICs of pyrazole compounds against tested clinical isolates, according to the Clinical Laboratory and Standards Institute guidelines. The broth cultures were used to prepare the bacterial inoculums, and the suspensions were adjusted to the standard 0.5 McFarland turbidity. Stock solutions of the synthesized pyrazoles were prepared in pure DMSO and further serially diluted with TS broth in the concentration range from 128 µg/mL to 0.0625 µg/mL. A well containing noninoculated TS broth, free of any antimicrobial agents, was also included to ensure the medium sterility, while Erythromycin and Amikacin served as positive controls. Bacterial growth was determined by adding 20 µL of 0.5% TTC (2,3,5-triphenyltetrazolium chloride) aqueous solution. […] All experiments were repeated three times. The bactericidal effect from each concentration of the pyrazole and pyrazolo[1,5-a]pyrimidine derivatives showing growth inhibition was further studied. For this study, a loopful of 5 µL was taken from each no-visible growth tube and streaked onto plates of TS agar.
A general note: Dilution methods test growth across graded concentrations, often in twofold steps.

A further assay deals with S. aureus DH-432. The assay is described as follows: Broth microdilution MIC/MBC. The assay is classed as cell-based, Staphylococcus aureus. Particulars: for MIC: Staphylococcus aureus, DH432, 24 h, read-out: MIC (Mean ± SEM); for MBC/MIC: value in brackets. On the procedure: as §1
The next assay has as its system S. pyogenes DH-3467. The assay is described as follows: Broth microdilution MIC/MBC. Particulars: for MIC: Streptococcus pyogenes, DH3467, 24 h, read-out: MIC (Mean ± SEM); for MBC/MIC: value in brackets. The assay is classed as cell-based, Streptococcus pyogenes. On the procedure:
as §1

The test system of a further assay is P. aeruginosa DH-5698. The assay can be described thus: Broth microdilution MIC/MBC. Format: cell-based, Pseudomonus aeruginosa. Particulars: for MIC: Pseudomonas aeruginosa, DH5698, 24 h, read-out: MIC (Mean ± SEM); for MBC/MIC: value in brackets. On the procedure:
as §1

Another assay deals with P. aeruginosa biofilm. The assay can be described thus: Crystal violet biofilm inhibition assay. Format: cell-based. Particulars: compounds at their MICs, crystal violet OD570. How it is done: (§2) The microtiter plate method was used to evaluate the active pyrazoles’ inhibitory activities on the strong biofilm-forming bacterial strains. This method was carried out as described, with some modifications. The antibiofilm effects of tested pyrazoles are presented as a percentage change from untreated bacterial controls. Overnight cultures of micro-organisms in the TSB medium with 10% (wt/vol) glucose were prepared as 10^8 CFU/mL, and then 100 µL was dispensed into each test well. Then, 100 µL of different concentrations of compounds, at their MICs, were dispensed into each well. The negative control contained only TSB, whereas the positive control contained cell cultures without compound addition. The supernatant was decanted and each well gently rinsed three times with 300 µL of sterile distilled water and discarded after incubation at 37 °C for 48 h. The plates were dried with air for 40 min. They were stained with 0.1% (wt/vol) crystal violet at room temperature for 30 min and washed three times with sterile distilled water. Afterward, the crystal violet was solubilized in 95% ethanol, and the absorbance was read in a microplate reader (MicroplatePhotometer and Multiskan FC) at 570 nm. This test was performed in triplicate, and the mean was taken as an average of three readings. The percentage of biofilm inhibition was calculated according to Equation (1):(1) Biofilm eradication %=OD positivecontrol−OD sample /OD positive control×100

Another assay concerns P. aeruginosa. The assay is described as follows: Anti-QS activity via signal inhibition, CV026 as indicator. Format: cell-based. Particulars: P. aeruginosa 10^6 CFU/mL; sub-MICs; control 11.2 mm. How it is done: (§3) The anti-QS potential of the tested compounds was explored as described. Briefly, an overnight bacterial suspension of the indicator organism C. violaceum CV026 was prepared in a concentration of 10^6 CFU/mL, and an aliquot of 200 µL was seeded in 5 mm of Soft Top agar (1.3 g agar, 2.0 g tryptone, 1.0 g NaCl, and 200 mL deionized water), supplemented with 20 µL of 0.25 µg/mL C6-HSL (N-hexanoyl-L-homoserine lactone), added as an exogenous AHL source. Wells were cut in the center of the plate after incubation for 30 min and then filled with 50 µL of sub-MICs of each most-active pyrazole hybrid. DMSO was used as a negative control. The plates were incubated at 28 °C for 48 h. Inhibition of violacein production by the indicator strain around the well, indicated by the presence of a white circle surrounded by a purple halo, was considered as positive for QS interference. For further investigation to determine the anti-QS activity for the pyrazole against the biofilm-forming bacterial isolates, an in vitro screening was performed. This was carried out by inoculation of 200 µL from an O/N CV026 culture onto plates of Soft Top agar. Wells of 8 mm diameter were separately made and filled with 90 µL of each biofilm-forming bacterial isolate (10^6 CFU/mL), plus 10 µL of each active pyrazole derivative (sub-MICs). Wells containing the bacterial isolates without treatment were used as controls. The signal diffusion zone diameter produced during the bacterial growth was measured in the presence of pyrazole and pyrazolo[1,5-a]pyrimidine derivatives and compared with the zone diameter of the violacein production by CV026.

A further assay deals with S. aureus. The assay is described as above. Format: cell-based. Particulars: S. aureus 10^6 CFU/mL; sub-MICs; control 12.0 mm. How it is done: as §3
The next assay relates to Gram-negative isolates. The assay is described as follows: Broth microdilution MIC/MBC, summary. Format: cell-based. How it is done: as §1
The test system of another assay is Gram-positive isolates. The assay is described as follows: Broth microdilution MIC/MBC, summary. The assay is classed as cell-based. On the procedure: as §1
The subject of another assay is S. aureus biofilm. The assay can be described thus: Crystal violet biofilm inhibition assay. Format: cell-based. Particulars: compounds at their MICs, crystal violet OD570. How it is done: as §2
The test system of the next assay is tested isolates. The assay can be described thus: Broth microdilution MIC/MBC, summary. Format: cell-based. On the procedure:
as §1

Structures are written as SMILES. ≈ marks a conversion by molar mass, not a printed value. Where “and” joins values, the source holds several entries; their conditions need not be identical. Equal values may be shown once.

This is an account of results in PMC9854762, “Antibiofilm and Anti-Quorum-Sensing Activities of Novel Pyrazole and Pyrazolo[1,5-a]pyrimidine Derivatives as Carbonic Anhydrase I and II Inhibitors: Design, Synthesis, Radiosterilization, and Molecular Docking Studies” (Antibiotics, 2023).

One may read the MIC as the smallest concentration in the dilution series that meets the test's criterion for growth inhibition. In general, MBC refers to the smallest concentration meeting the test's criterion for killing. A low value points to greater bactericidal potency.

Consider `CCOC(=O)c1ccc(N=Nc2c(N)n[nH]c2N)cc1` [Compound 3a, Ethyl 4-((3,5-diamino-1H-pyrazol-4-yl)diazenyl)benzoate], for which the MIC in the assay with E. faecalis DH-5478 was 0.125 ± 0.1 µg/mL (≈ 0.456 µM); with S. aureus DH-432, 0.125 ± 0.3 µg/mL (≈ 0.456 µM); in the assay on S. pyogenes DH-3467, 0.125 ± 0.3 µg/mL (≈ 0.456 µM); in the assay with P. aeruginosa DH-5698, 0.125 ± 0.2 µg/mL (≈ 0.456 µM); against Gram-negative isolates, 0.062 to 0.25 µg/mL (≈ 0.226 to 0.911 µM); in the assay with Gram-positive isolates, 0.125 µg/mL (≈ 0.456 µM). For the same compound, the MBC/MIC against E. faecalis DH-5478, in the assay with S. aureus DH-432, in the assay with S. pyogenes DH-3467 and in the assay on P. aeruginosa DH-5698 was 0.5 each time. Also, the “Biofilm Eradication %” value in the assay with P. aeruginosa biofilm is 88% and > 80%. Moreover, the “QS signal diffusion zone” value is given as 7.8 mm in the assay with P. aeruginosa and 5.0 mm in the assay with S. aureus.
As for `CCOC(=O)c1ccc(N=Nc2c(N=Cc3ccc(N(C)C)cc3)n[nH]c2N)cc1` [Compound 5a, Ethyl 4-((5-amino-3-((4-(dimethylamino)benzylidene)amino)-1H-pyrazol-4-yl)diazenyl)benzoate], the MIC with E. faecalis DH-5478 worked out at 0.5 ± 0.2 µg/mL (≈ 1.23 µM); in the assay on S. aureus DH-432, 0.25 µg/mL (≈ 0.617 µM); in the assay with S. pyogenes DH-3467 it was 0.5 ± 0.1 µg/mL (≈ 1.23 µM); in the assay on P. aeruginosa DH-5698, 0.5 ± 0.1 µg/mL (≈ 1.23 µM); against tested isolates (other isolates (not S. aureus, E. coli)) it was 0.5 µg/mL (≈ 1.23 µM). In addition, the MBC/MIC against E. faecalis DH-5478, against S. aureus DH-432, against S. pyogenes DH-3467 and against P. aeruginosa DH-5698 was 0.5 in each case. For the same compound, in the assay on S. aureus DH-432 (24 h), the “MIC (Mean ± SEM)” value was 0.25 ± 0.2 µg/mL (≈ 0.617 µM). Further, the “Biofilm Eradication %” value is 63% and 63 ± 0.52% in the assay with P. aeruginosa biofilm; 69% and 69 ± 0.24% in the assay with S. aureus biofilm. In addition, the “QS signal diffusion zone” value with P. aeruginosa is 9.8 mm; in the assay with S. aureus, 7.3 mm.
Regarding `CCOC(=O)c1ccc(N=Nc2c(N)nn3c(C)cc(C)nc23)cc1` [Compound 6, ethyl-4-((2-amino-5,7-dimethylpyrazolo[1,5-a]pyrimidin-3-yl)diazenyl)benzoate], the MIC with E. faecalis DH-5478 was 0.375 ± 0.2 µg/mL (≈ 1.11 µM); in the assay with S. aureus DH-432, 0.187 ± 0.1 µg/mL (≈ 0.553 µM); with S. pyogenes DH-3467 it was 0.25 ± 0.3 µg/mL (≈ 0.739 µM); in the assay with P. aeruginosa DH-5698, 0.375 ± 0.4 µg/mL (≈ 1.11 µM); in the assay with tested isolates (S. aureus, E. faecalis, and P. aeruginosa), 0.187 to 0.375 µg/mL (≈ 0.553 to 1.11 µM). Moreover, the MBC/MIC against E. faecalis DH-5478, in the assay with S. aureus DH-432, with S. pyogenes DH-3467 and with P. aeruginosa DH-5698 was 0.5 each time. Also, the “Biofilm Eradication %” value in the assay with P. aeruginosa biofilm is 76% and 76 ± 0.52%; in the assay on S. aureus biofilm it was 80% and 80 ± 0.63%. The “QS signal diffusion zone” value in the assay on P. aeruginosa came to 8.7 mm; with S. aureus it was 6.5 mm.
As to `CCOC(=O)c1ccc(N=Nc2c(N)nn3c(N)c(C#N)c(-c4ccc(N(C)C)cc4)nc23)cc1` [Compound 9a, Ethyl-4-((2,7-diamino-6-cyano-5-(4-(dimethylamino)phenyl)pyrazolo[1,5-a]pyrimidin-3-yl)diazenyl)benzoate], the MIC in the assay with E. faecalis DH-5478 was 0.5 ± 0.1 µg/mL (≈ 1.06 µM); in the assay with S. aureus DH-432, 0.25 ± 0.2 µg/mL (≈ 0.532 µM); in the assay with S. pyogenes DH-3467, 0.25 ± 0.2 µg/mL (≈ 0.532 µM); in the assay with P. aeruginosa DH-5698 it was 0.375 ± 0.3 µg/mL (≈ 0.799 µM); in the assay with Gram-positive isolates, 0.25 to 0.5 µg/mL (≈ 0.532 to 1.06 µM). Further, the MBC/MIC with E. faecalis DH-5478, with S. aureus DH-432, against S. pyogenes DH-3467 and against P. aeruginosa DH-5698 was 0.5 each time. For the same compound, the “Biofilm Eradication %” value with P. aeruginosa biofilm was 66% and 66 ± 0.9%; in the assay with S. aureus biofilm it was 72% and 72 ± 0.81%. Besides, the “QS signal diffusion zone” value is 9.5 mm in the assay with P. aeruginosa and 6.9 mm with S. aureus. Also, the MBC in the assay on Gram-positive isolates was 0.125 to 0.25 µg/mL (≈ 0.266 to 0.532 µM).
Take `CCOC(=O)c1ccc(N=Nc2c(N)nn3c(O)c(C#N)c(-c4ccc(N(C)C)cc4)nc23)cc1` [Compound 10a, Ethyl-4-((2-amino-6-cyano-5-(4-(dimethylamino)phenyl)-7-hydroxypyrazolo[1,5-a]pyrimidin-3-yl)diazenyl)benzoate]: the MIC with E. faecalis DH-5478 was 0.187 ± 0.1 µg/mL (≈ 0.397 µM); with S. aureus DH-432, 0.125 ± 0.2 µg/mL (≈ 0.266 µM); in the assay with S. pyogenes DH-3467 it was 0.187 ± 0.2 µg/mL (≈ 0.397 µM); with P. aeruginosa DH-5698, 0.187 ± 0.1 µg/mL (≈ 0.397 µM). Besides, the MBC/MIC in the assay with E. faecalis DH-5478, against S. aureus DH-432, against S. pyogenes DH-3467 and against P. aeruginosa DH-5698 was 0.5 in each case. Also, in the assay on P. aeruginosa biofilm, the “Biofilm Eradication %” value was 80% and > 80%. The “QS signal diffusion zone” value in the assay on P. aeruginosa is given as 8.0 mm; in the assay with S. aureus it was 6.2 mm.
